Values quoted from earlier work in patent US20150030707A1, “Rhus Coriaria L. Extract For Use In The Treatment Of Hyperhidrosis” (BIOMEDICAL RESEARCH S.R.L., priority 2012, published 2015).

Conditions: in vivo

## botulinum toxin
  duration of efficacy of the injections: 5-6 months
